The results in this text go back to patent publication US11266670B2, “Use of scutellarin in a medicament and a modulator for preventing or treating diseases, medicament, and modulator” (University of Macau, priority 2019, dated 2022).

SMILES strings stand for the structures. Starred links: 1 amine or outer side, 2 acyl side, 3 side chain; linkers in the order of their positions; H or OH if unused. Positions of bridges follow the written chain, without caps; N, C: chain ends. Non-standard residues stand in square brackets, D forms with d. Residues, ends and D or L forms follow the SMILES beside them. Chains are numbered I, II in the order given. Actinocin(9to1) = Cc1c2oc3c(C)ccc(C(=O)[*:1])c3nc-2c(C(=O)[*:2])c(N)c1=O; NMeV = CN[C@H](C(=O)O)C(C)C; Sar = CNCC(=O)O

For one series, the system named is WEHI-13VAR cells. The series is described as follows: TNF bioassay: TNF-induced death of WEHI-13VAR cells in the presence of AcD (MTT). Format: cell-based. As for the experimental part:
WEHI-13VAR is a fibrosarcoma cell line that is extremely sensitive to TNF-induced cell death in the presence of AcD (0.5 μg/ml) and is commonly used in TNF bioassays. In TNF bioassays, the presence of AcD is a standard approach designed to increase the sensitivity of cells to TNF. TNF acts by binding to its two functionally distinct receptors, TNFR1 and TNFR2. To identify which TNF receptor was expressed on WEHI-13VAR cells, we measured the expression of TNFR1 and TNFR2 on WEHI-13VAR by FACS. […] In the case of labeling with PE anti-mouse TNFR2 antibody, the expression of TNFR2 was higher than in the case of labeling with the isotype control by 50%. […] Furthermore, in order to investigate which TNF receptor is responsible for TNF-induced cell death, we stimulated the cells with TNF, and co-cultured the cells with anti-TNFR1 antibody or anti-TNFR2 antibody for 24 hours. Cell viability was measured by MTT. […]
CHIs are injections developed in China and approved by the China Food and Drug Administration. […] We screened eleven CHIs and assessed their effects on WEHI-13VAR cells by TNF bioassay. […]
WEHI-13VAR cells were seeded in 96-well plates at 1.5×10^4 cells/well. […] Absorbance values were read at 570 nm using a 1420 Multilabel counter victor (PerkinElmer, Waltham, Mass., USA). Cell viability was expressed as the ratio of absorbance values between the sample and the blank control group.

The next series concerns Tregs. As to the kind of experiment: TNF-induced up-regulation of Tregs and Foxp3/TNFR2 expression in cultured lymphocytes (FACS). Conditions: in vitro. Format: cell-based. On the procedure:
FIG. 5. […] Lymphocytes were cultured in the presence of IL-2 (10 ng/mL) or IL-2+TNF (10 ng/mL each), with medium alone or with scutellarin (25-50 μM) for 72 hours. (A) Typical FACS analysis of Tregs is shown. The data as shown are representative of at least three separate experiments with similar results. The numbers in the FACS plots show the proportion of cells in the respective quadrants. (B) Summary of the proportion of CD4^+Foxp3^+ cells in CD4^+ cells. (C) Summary of MFI of Foxp3 expression on Tregs. (D) Typical FACS plots of the proportion of TNFR2^+ cells in Tregs. (E) Summary of the proportion of TNFR2^+ cells in CD4^+Foxp3^+Tregs. (F) Summary of MFI of TNFR2 expression on Tregs (by gating on Foxp3^+ cells) (N=3, mean±SEM). ** p<0.01, *** p<0.001, compared to the “TNF+IL-2” group. The data as shown are representative of at least three separate experiments with similar results.
We then explored the effect of scutellarin on the TNF-induced proliferation of Tregs in an in vitro experiment. […]
Lymphocytes were obtained from spleens, axillary lymph nodes, inguinal lymph nodes and mesenteric lymph nodes of mice. […] The proliferation of Tregs was assessed by CFSE dilution assay, and the proportion of Foxp3^+ cells in the CD4^+ subset and the proportion of TNFR2 expressed on Tregs were analyzed by FACS. […] The expression of Foxp3 and TNFR2 was analyzed by FACS. […]

For `O=C(O)[C@H]1O[C@@H](Oc2cc3oc(-c4ccc(O)cc4)cc(=O)c3c(O)c2O)[C@H](O)[C@@H](O)[C@@H]1O` [scutellarin], the “cytotoxicity against WEHI-13VAR cells” value with WEHI-13VAR cells (scutellarin 12.5-200 μM) is given as “no significant cytotoxicity against WEHI-13VAR cells”. Further, the “50% lethal dose of scutellarin” value in the series on Tregs is “higher than 100 μM”.

Turning to `Cc1c2oc3c(C)ccc(C(=O)N[C@@H]4C(=O)N[C@H](C(C)C)C(=O)N5CCC[C@H]5C(=O)N(C)CC(=O)N(C)[C@@H](C(C)C)C(=O)O[C@@H]4C)c3nc-2c(C(=O)N[C@@H]2C(=O)N[C@H](C(C)C)C(=O)N3CCC[C@H]3C(=O)N(C)CC(=O)N(C)[C@@H](C(C)C)C(=O)O[C@@H]2C)c(N)c1=O` [AcD, actinomycin D, reference compound] (I: T[dV]P[Sar][NMeV] / II: T[dV]P[Sar][NMeV]; ester I:1-I:C, II:1-II:C; linker I:N-II:N via Actinocin(9to1)), the “death of WEHI-13VAR cells induced by AcD” value in the series on WEHI-13VAR cells (AcD 0.5 μg/ml alone) is reported as “approximately 30%”.
